Laboratory results as given in ChEMBL document CHEMBL4422656, “Kallikrein 5 inhibitors identified through structure based drug design in search for a treatment for Netherton Syndrome” (Bioorg Med Chem Lett, 2019).

Columns and labels:
[1] = target: Kallikrein-7 (Homo sapiens, UniProt P49862); assay: Inhibition of recombinant human KLK7 using S-2586 substrate
[2] = target: T1, Kallikrein-5 (Homo sapiens, UniProt Q9Y337); assay: Inhibition of recombinant human KLK5 using S-2288 substrate
T1 sequence (Q9Y337 whole entry): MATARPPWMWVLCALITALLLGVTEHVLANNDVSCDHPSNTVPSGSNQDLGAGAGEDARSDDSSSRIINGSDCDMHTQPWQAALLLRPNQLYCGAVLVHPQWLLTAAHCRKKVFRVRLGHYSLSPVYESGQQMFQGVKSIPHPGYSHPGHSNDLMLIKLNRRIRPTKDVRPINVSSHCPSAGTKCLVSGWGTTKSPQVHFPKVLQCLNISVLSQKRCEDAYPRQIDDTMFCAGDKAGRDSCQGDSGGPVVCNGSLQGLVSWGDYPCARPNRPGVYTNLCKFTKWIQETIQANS

[3] = target: T1, Kallikrein-5; assay: Inhibition of recombinant human FLAG-tagged KLK5 expressed in baculovirus infected sf9 insect cells using (Tos-Gly-Pro-Arg)2[R110].2TFA as substrate measured every 30 secs intervals for 5 mins by Rhodamine110 dye-based fluorescence assay
[4] = target: Kallikrein-1 (Homo sapiens, UniProt P06870); assay: Inhibition of recombinant human N-terminal his-tagged KLK1 (19 to 262 residues) expressed in baculovirus infected sf9 insect cells using R110 labelled GSK3162232A as substrate measured every 30 secs intervals for 5 mins by Rhodamine110 dye-based fluorescence assay
[5] = Dissociation constant, pKa of phenol group of the compound by UV spectrophotometric analysis; assay type: physicochemical
[6] = organism: Homo sapiens; assay: Selectivity ratio of IC50 for recombinant human N-terminal his-tagged KLK1 (19 to 262 residues) to IC50 for recombinant human FLAG-tagged KLK5
[7] = target: T1, Kallikrein-5; assay: Inhibition of KLK5 (unknown origin) using Boc-Val-Pro-Arg-AMC substrate incubated for 15 mins by fluorescence assay
[8] = target: T2, Kallikrein-14 (Homo sapiens) (UniProt Q9P0G3); assay: Inhibition of KLK14 (unknown origin) at 100 uM using Boc-Val-Pro-Arg- AMC substrate incubated for 15 mins by fluorescence assay
T2 sequence (whole entry): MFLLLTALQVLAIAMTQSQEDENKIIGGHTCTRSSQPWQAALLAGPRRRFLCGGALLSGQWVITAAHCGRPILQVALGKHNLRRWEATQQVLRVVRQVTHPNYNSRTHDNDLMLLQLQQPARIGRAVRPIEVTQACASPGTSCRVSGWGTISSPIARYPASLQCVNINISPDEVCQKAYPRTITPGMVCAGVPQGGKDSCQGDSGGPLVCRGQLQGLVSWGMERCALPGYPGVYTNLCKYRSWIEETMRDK

Kallikrein-1, sequence (P06870 whole entry, the tested form may be a part): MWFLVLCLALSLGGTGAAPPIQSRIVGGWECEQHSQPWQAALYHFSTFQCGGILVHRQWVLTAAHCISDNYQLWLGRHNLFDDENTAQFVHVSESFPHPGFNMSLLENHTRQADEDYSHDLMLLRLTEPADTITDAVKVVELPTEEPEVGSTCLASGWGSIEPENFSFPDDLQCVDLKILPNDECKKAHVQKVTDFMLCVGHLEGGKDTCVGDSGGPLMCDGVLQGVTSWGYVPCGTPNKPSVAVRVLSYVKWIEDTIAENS
Kallikrein-7, sequence (P49862 whole entry): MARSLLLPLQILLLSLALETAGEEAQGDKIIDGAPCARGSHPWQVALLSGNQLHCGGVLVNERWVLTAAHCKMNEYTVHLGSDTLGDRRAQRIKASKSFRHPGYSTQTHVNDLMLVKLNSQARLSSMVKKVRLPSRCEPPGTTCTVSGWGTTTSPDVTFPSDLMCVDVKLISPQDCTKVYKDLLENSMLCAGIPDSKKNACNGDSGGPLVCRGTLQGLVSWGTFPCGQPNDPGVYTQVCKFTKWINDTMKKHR

SMILES | IC50 [3] | IC50 [4] | other results
CCOc1cc2c(=O)oc(-c3ccccc3OC)nc2cc1OC |  |  | IC50 [1]: 48 nM; IC50 [2]: 200 nM
N=C(N)c1ccc(NC(=O)c2ccccc2O)cc1F | 20 µM | 12.6 µM | 
N=C(N)c1ccc(NC(=O)c2ccccc2O)c(F)c1 | 2.51 µM | 3.16 µM | 
N=C(N)c1ccc(NC(=O)c2ccccc2O)cc1 | 6.31 µM | 12.6 µM | pKa [5]: 6.8
N=C(N)c1ccc(NC(=O)c2cccc(O)c2O)cc1 | 2.51 µM | 3.98 µM | 
COc1cccc(C(=O)Nc2ccc(C(=N)N)c(F)c2)c1O | 1 µM | 0.251 µM | 
Cc1cccc(C(=O)Nc2ccc(C(=N)N)cc2)c1O | 7.94 µM | 3.16 µM | pKa [5]: 6.8
N=C(N)c1ccc(NC(=O)c2cccc(Cl)c2O)cc1 | 2.51 µM | 0.631 µM | pKa [5]: 5
N=C(N)c1ccc(NC(=O)N2CCCNC2=O)cc1 | 10 µM | 631 µM | Ratio IC50 [6]: 100
Cc1cc(C(=N)N)ccc1NC(=O)c1ccccc1O | 12.6 µM | 5.01 µM | 
COc1cccc(C(=O)Nc2ccc(C(=N)N)c(Cl)c2)c1O | 10 µM | 1.26 µM | 
N=C(N)c1ccc(NC(=O)C2CCCNC2=O)cc1 (stereo unspecified) | 10 µM | 501 µM | Ratio IC50 [6]: 100
Cn1c(C(=O)Nc2ccc(C(=N)N)cc2)nc2ccccc21 | 12.6 µM | 200 µM | Ratio IC50 [6]: 10
Cn1cccc(C(=O)Nc2ccc(C(=N)N)cc2)c1=O | 158 µM | 501 µM | 
CCOc1cccc(C(=O)Nc2ccc(C(=N)N)cc2)c1O | 5.01 µM | 0.126 µM | 
COc1cccc(C(=O)Nc2ccc(C(=N)N)cc2)c1O | 0.501 µM | 0.316 µM | pKa [5]: 6.6
O=C1Oc2ccccc2CC1C(=O)Oc1nccc2ccccc12 (stereo unspecified) |  |  | IC50 [7]: 7 µM; inhibition [8]: 61%
